In data set [1] the test system is HCT-116. In words: Antiproliferative activity against human HCT116 cells after 48 hrs by SRB assay. Type of data set: functional, cell-based. Conditions: HCT-116, 48 h. Background: In SRB staining, fixed cells bind dye roughly in proportion to their protein.
The next data set concerns HepG2. In words: Antiproliferative activity against human HepG2 cells after 48 hrs by SRB assay. Type of data set: functional, cell-based. Conditions: HepG2, 48 h.
The subject of a further data set is MCF7. Briefly: Antiproliferative activity against human MCF7 cells after 48 hrs by SRB assay. The format is functional, cell-based. Conditions: MCF7, 48 h.
Data set [2] has as its target T1, Tumour suppressor p53/oncoprotein Mdm2 (Homo sapiens) (UniProt P04637+Q00987). Briefly: Inhibition of MDM2-p53 interaction in human HCT116 cells assessed as p53 activation by measuring increase in MDM2 expression at 4.2 uM after 48 hrs by Western blot analysis. Type of data set: cell-based. (A western blot detects proteins with antibodies after separation by electrophoresis.)

Data set [3] can be described thus: Selectivity ratio of IC50 for human HFF to IC50 for human HepG2 cells. The format is toxicity. Conditions: HFF cells versus HepG2 cells, read-out: Ratio IC50.
Data set [4] is described as follows: Selectivity ratio of IC50 for human HFF to IC50 for human MCF7 cells. Type of data set: toxicity. Conditions: HFF cells versus MCF7 cells, read-out: Ratio IC50.
The nature of data set [5]: Selectivity ratio of IC50 for human HFF to IC50 for human A375 cells. Type of data set: toxicity. As to conditions: HFF cells versus A375 cells, read-out: Ratio IC50.
In data set [6] the test system is HCT-116. In words: Induction of apoptosis in human HCT116 cells at 4.2 uM after 48 hrs by annexin V/FITC-propidium iodide staining-based flow cytometric method. The format is functional, cell-based. On the technique in general: Flow cytometry measures light scatter and fluorescence of single cells or particles in a stream.
Data set [7] has as its target T1, Tumour suppressor p53/oncoprotein Mdm2 (Homo sapiens). In words: Inhibition of MDM2-p53 interaction in human HCT116 cells assessed as p53 activation by measuring increase in p21 level at 4.2 uM after 48 hrs by Western blot analysis. Type of data set: cell-based.
In data set [8] the test system is Saccharomyces cerevisiae. In words: Growth inhibition of Saccharomyces cerevisiae expressing MDM2 at 1 to 50 uM after 42 hrs by Yeast-based assay. The format is organism-based. Conditions: in vivo.
For data set [9], the system named is Saccharomyces cerevisiae. In words: Growth inhibition of Saccharomyces cerevisiae expressing empty vector at 1 to 50 uM after 42 hrs by Yeast-based assay. Type of data set: organism-based. As to conditions: in vivo.
The test system of data set [10] is Saccharomyces cerevisiae. Briefly: Growth inhibition of Saccharomyces cerevisiae expressing p53 at 1 to 50 uM after 42 hrs by Yeast-based assay. The format is organism-based. Conditions: in vivo.
Data set [11] addresses T1, Tumour suppressor p53/oncoprotein Mdm2 (Homo sapiens). In words: Inhibition of MDM2-p53 interaction in human HCT116 cells assessed as p53 activation by measuring increase in PUMA level at 4.2 uM after 48 hrs by Western blot analysis. Type of data set: cell-based.
A short description of data set [12]: Selectivity ratio of IC50 for human HFF to IC50 for human HCT116 cells. Type of data set: toxicity. As to conditions: HFF cells versus HCT116 cells, read-out: Ratio IC50.
The next data set deals with A-375. Briefly: Antiproliferative activity against human A375 cells after 48 hrs by SRB assay. Type of data set: functional, cell-based. As to conditions: A-375, 48 h.
In data set [13] the test system is HCT-116. Briefly: Anticlonogenic activity against human HCT116 cells after 11 days by crystal violet staining based assay. As to conditions: HCT-116, 264 h. Type of data set: functional, cell-based.
Data set [14] relates to HCT-116. In words: Induction of mitochondrial ROS generation in human HCT116 cells at 4.2 uM after 48 hrs by MitoSOX dye-based flow cytometric analysis. Type of data set: functional, cell-based.
The target in data set [15] is T1, Tumour suppressor p53/oncoprotein Mdm2 (Homo sapiens). Briefly: Inhibition of MDM2-p53 interaction in human HCT116 cells assessed as p53 activation by measuring increase in cleaved-PARP level at 4.2 uM after 48 hrs by Western blot analysis. The format is cell-based.
Data set [16] deals with HCT-116. Briefly: Cell cycle arrest in human HCT116 cells assessed as accumulation at G2/M phase at 4.2 uM after 48 hrs by propidium iodide staining-based flow cytometric analysis. The format is functional.
The target of data set [17] is T1, Tumour suppressor p53/oncoprotein Mdm2 (Homo sapiens). Briefly: Inhibition of human MDM2-p53 interaction in Saccharomyces cerevisiae assessed as p53 induced cell growth arrest at 1 to 50 uM after 42 hrs by Yeast-based assay. The format is protein assay.
The target is the same in data set [18]. In words: Inhibition of MDM2-p53 interaction in human HCT116 cells assessed as p53 activation by measuring increase in GADD45 level at 4.2 uM after 48 hrs by Western blot analysis. Type of data set: cell-based.
The target is the same in data set [19]. Briefly: Inhibition of MDM2-p53 interaction in human HCT116 cells assessed as p53 activation by measuring decrease in Bcl-2 level at 4.2 uM after 48 hrs by Western blot analysis. Type of data set: cell-based.
Data set [20] concerns Saccharomyces cerevisiae. Briefly: Growth inhibition of Saccharomyces cerevisiae expressing empty vector at 10 uM after 42 hrs by Yeast-based assay. The format is organism-based. Conditions: in vivo.
The subject of data set [21] is Saccharomyces cerevisiae. In words: Growth inhibition of Saccharomyces cerevisiae expressing p53 at 10 uM after 42 hrs by Yeast-based assay. The format is organism-based. Conditions: in vivo.
For data set [22], the system named is Saccharomyces cerevisiae. Briefly: Growth inhibition of Saccharomyces cerevisiae expressing MDM2 at 10 uM after 42 hrs by Yeast-based assay. The format is organism-based. Conditions: in vivo.

Data on 24 molecules can be found in ChEMBL document CHEMBL4152340, “Targeting the MDM2-p53 protein-protein interaction with prenylchalcones: Synthesis of a small library and evaluation of potential antitumor activity” (Eur J Med Chem, 2018).

The source made the active and inactive calls. The rule behind the calls is not given here.

T1 sequence (P04637 whole entry, looked up): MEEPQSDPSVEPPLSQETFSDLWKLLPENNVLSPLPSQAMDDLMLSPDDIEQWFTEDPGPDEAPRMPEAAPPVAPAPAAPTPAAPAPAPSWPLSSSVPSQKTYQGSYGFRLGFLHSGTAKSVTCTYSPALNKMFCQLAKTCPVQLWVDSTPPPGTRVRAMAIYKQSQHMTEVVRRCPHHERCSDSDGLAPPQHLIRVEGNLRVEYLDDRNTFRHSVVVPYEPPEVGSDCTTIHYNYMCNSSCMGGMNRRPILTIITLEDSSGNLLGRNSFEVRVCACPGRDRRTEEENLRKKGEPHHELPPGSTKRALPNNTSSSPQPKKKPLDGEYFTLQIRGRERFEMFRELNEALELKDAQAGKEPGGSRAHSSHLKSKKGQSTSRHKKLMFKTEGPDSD
T1 sequence (Q00987 whole entry, looked up): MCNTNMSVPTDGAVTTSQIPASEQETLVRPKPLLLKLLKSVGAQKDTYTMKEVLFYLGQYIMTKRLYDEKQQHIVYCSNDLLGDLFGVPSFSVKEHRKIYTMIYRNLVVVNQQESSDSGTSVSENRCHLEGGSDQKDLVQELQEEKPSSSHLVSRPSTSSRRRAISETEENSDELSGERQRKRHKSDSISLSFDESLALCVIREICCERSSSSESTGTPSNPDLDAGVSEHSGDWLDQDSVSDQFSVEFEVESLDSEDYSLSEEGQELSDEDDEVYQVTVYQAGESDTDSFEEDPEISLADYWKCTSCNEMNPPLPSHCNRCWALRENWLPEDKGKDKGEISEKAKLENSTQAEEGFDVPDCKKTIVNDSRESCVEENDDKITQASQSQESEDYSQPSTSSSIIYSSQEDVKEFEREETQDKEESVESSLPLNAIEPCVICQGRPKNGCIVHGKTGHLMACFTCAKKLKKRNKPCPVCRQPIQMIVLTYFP

What is called IC50 is the concentration at which inhibition is half-maximal. A lower IC50 goes with inhibition by little substance. As to `COc1cc(O)c(C(=O)/C=C/c2ccc(OC)c(OC)c2)c(OC)c1`, the 50% inhibitory concentration (IC50) with HCT-116 [1] came out at 27.6 µM.

As to `COc1cc(OCC=C(C)C)c(C(=O)/C=C/c2cc(OC)c(OC)c(OC)c2)c(OC)c1CC=C(C)C`, the IC50 with HCT-116 [1] turned out to be 4.2 µM.

As to `COc1cc(O)c(C(=O)/C=C/c2ccc(Br)cc2)c(OC)c1`, half-maximal inhibition in the data set on HCT-116 [1] (IC50) required 14 µM.

With `COc1cc(OC)c(C(=O)/C=C/c2cc(Cl)cc(Cl)c2)c(OCC=C(C)C)c1`, in the data set with HCT-116 [1], the IC50 turned out to be 24.5 µM.

`COc1cc(OC)c(C(=O)/C=C/c2ccc(Br)cc2)c(OCC=C(C)C)c1`: the IC50 in the data set with HepG2 stood at 3.6 µM; in the data set with MCF7, 2.8 µM; in the data set on HCT-116 [1], 2.1 µM; in the data set with A-375, 1.6 µM; with HCT-116 [13], 0.17 µM. In addition, the inhibition entry in [2], in data set [7], in [11], in [15], in data set [17] and in data set [18] was “Active” each time. For the same molecule, the inhibition entry in data set [19] is “Active”. Further, the selectivity ratio in data set [3], in data set [4], in data set [5] and in [12] was 3 in each case. The result with HCT-116 [6], in the data set with HCT-116 [14] and in the data set on HCT-116 [16] was Active. Also, the “growth inhibition (GI)” value in the data set on Saccharomyces cerevisiae [8], with Saccharomyces cerevisiae [9] and in the data set on Saccharomyces cerevisiae [10] was “Non-Toxic” each time.

For `COc1cc(O)c(C(=O)/C=C/c2ccc(F)cc2)c(OC)c1`, half-maximal inhibition in the data set with HCT-116 [1] (IC50) was put at 4.4 µM.

`COc1cccc(/C=C/C(=O)c2c(O)cc(OC)cc2OC)c1`: 3.1 µM corresponded to half-maximal inhibition in the data set with HCT-116 [1] (IC50). This IC50 and that of the molecule before are within 1.5-fold of each other.

In the data set with HCT-116 [1], `COc1cc(O)c(C(=O)/C=C/c2cccc(OC)c2OC)c(OC)c1` yielded an IC50 of 3.5 µM.

With `COc1cc(/C=C/C(=O)c2c(OC)cc(OC)cc2OCC=C(C)C)cc(OC)c1`, in the data set on HCT-116 [1], half-maximal inhibition (IC50) required 3.5 µM.

Turning to `COc1cccc(/C=C/C(=O)c2c(OC)cc(OC)cc2OCC=C(C)C)c1`, inhibition with HCT-116 [1] was half-maximal at 7.7 µM (IC50).

For the molecule `COc1cc(OC)c(C(=O)/C=C/c2cccc(Cl)c2Cl)c(OCC=C(C)C)c1`, the IC50 with HCT-116 [1] stood at 1.9 µM.

For the molecule `COc1cc(OC)c(C(=O)/C=C/c2ccc(F)cc2)c(OCC=C(C)C)c1`, the midpoint of inhibition with HCT-116 [1], the IC50, lay at 3.2 µM.

As for `COc1cc(OC)c(C(=O)/C=C/c2ccc(OC)c(OC)c2)c(OCC=C(C)C)c1`, the IC50 in the data set with HCT-116 [1] came out at 5.7 µM.

On to `COc1cc(OC)c(C(=O)/C=C/c2cc(OC)c(OC)c(OC)c2)c(OCC=C(C)C)c1CC=C(C)C`, for which it took 2.9 µM to reach half-maximal inhibition in the data set with HCT-116 [1] (IC50).

In the case of `COc1ccc(/C=C/C(=O)c2c(OCC=C(C)C)cc(OC)c(CC=C(C)C)c2OC)cc1OC`, in the data set with HCT-116 [1], the midpoint of inhibition, the IC50, lay at 7.4 µM.

In the data set on HCT-116 [1], `COc1cc(OC)c(C(=O)/C=C/c2cccc(OC)c2OC)c(OCC=C(C)C)c1` registered an IC50 of 11.7 µM. Further, the “growth inhibition (GI)” value in the data set with Saccharomyces cerevisiae [8], in the data set on Saccharomyces cerevisiae [9] and with Saccharomyces cerevisiae [10] was “Non-Toxic” throughout. For the same molecule, the inhibition result in data set [17] was “Active”.

As to `COc1ccc(/C=C/C(=O)c2c(O)cc(OC)cc2OC)c(OC)c1`, it took 50 µM to reach half-maximal inhibition in the data set on HCT-116 [1] (IC50). Further, the “growth inhibition (GI)” value in the data set on Saccharomyces cerevisiae [8], in the data set with Saccharomyces cerevisiae [9] and in the data set on Saccharomyces cerevisiae [10] was “Non-Toxic” each time. In data set [17], the inhibition result was “Active”.

With `COc1ccc(/C=C/C(=O)c2c(O)cc(OC)cc2OC)cc1` [FLAVOKAWAIN A], in the data set with HCT-116 [1], the IC50 is 10.6 µM. Also, the “growth inhibition (GI)” value with Saccharomyces cerevisiae [8], in the data set on Saccharomyces cerevisiae [9] and in the data set on Saccharomyces cerevisiae [10] was “Non-Toxic” throughout. For the same molecule, the inhibition result in [17] is “Active”.

As to `COc1cc(O)c(C(=O)/C=C/c2cc(Cl)cc(Cl)c2)c(OC)c1`, the IC50 in the data set on HCT-116 [1] is 1.9 µM.

Consider `COc1ccc(C2=N[C@@H](c3ccc(Cl)cc3)[C@@H](c3ccc(Cl)cc3)N2C(=O)N2CCNC(=O)C2)c(OC(C)C)c1` [NUTLIN-3], for which the “growth inhibition (GI)” value in the data set on Saccharomyces cerevisiae [20], in the data set on Saccharomyces cerevisiae [21] and with Saccharomyces cerevisiae [22] was “Non-Toxic” each time.

Turning to `COc1ccc(/C=C/C(=O)c2c(OC)cc(OC)cc2OCC=C(C)C)cc1`, in the data set on HCT-116 [1], the IC50 turned out to be 7.6 µM.

Regarding `COc1cc(O)c(C(=O)/C=C/c2cccc(Cl)c2Cl)c(OC)c1`, in the data set on HCT-116 [1], the IC50 was determined as 2.7 µM.

`COc1cc(O)c(C(=O)/C=C/c2cccc(OC)c2OC)c(OC)c1CC=C(C)C` yielded an IC50 with HCT-116 [1] of 29.5 µM. The “growth inhibition (GI)” value in the data set on Saccharomyces cerevisiae [8], with Saccharomyces cerevisiae [9] and in the data set on Saccharomyces cerevisiae [10] was “Non-Toxic” in each case. The inhibition result in data set [17] was “Active”.

`COc1cccc(/C=C/C(=O)c2c(O)c(CC=C(C)C)c(OC)c(CC=C(C)C)c2OC)c1OC` showed an IC50 in the data set with HCT-116 [1] of 15.3 µM.
